Tests used:
Type in all cases: in vivo
[1] = tested on: barnyardgrass (Echinochloa crus-galli); test: Test A preemergence; conditions: Preemergence; for Plant response rating, Barnyardgrass: 125 g ai/ha, visual injury after approximately 10 d, 0 to 100 scale where 0 is no effect and 100 is complete control; for Barnyardgrass plant response rating (0 to 100 scale, 0 is no effect, 100 is complete control): 500 g ai/ha, visual injury approx. 10 d
Outline: (§1)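 Visual injury scores from 0, no effect, to 100, complete control, were assigned versus untreated controls roughly 10 d after treatment in the greenhouse. Test chemicals, formulated with surfactant in a non-phytotoxic solvent, were applied to planted seeds as a preemergence soil spray or postemergence to one- to two-leaf plants 2 to 10 cm tall, in loam–sand soil.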

[2] = tested on: giant foxtail (Setaria faberii); test: Test A preemergence; conditions: Preemergence; for Plant response rating, Foxtail, Giant: 125 g ai/ha, visual injury after approximately 10 d, 0 to 100 scale where 0 is no effect and 100 is complete control; for Foxtail, Giant plant response rating (0 to 100 scale, 0 is no effect, 100 is complete control): 500 g ai/ha, visual injury approx. 10 d
Outline: as §1

[3] = tested on: pigweed (Amaranthus retroflexus); test: Test A preemergence; conditions: Preemergence; for Plant response rating, Pigweed: 125 g ai/ha, visual injury after approximately 10 d, 0 to 100 scale where 0 is no effect and 100 is complete control; for Pigweed plant response rating (0 to 100 scale, 0 is no effect, 100 is complete control): 500 g ai/ha, visual injury approx. 10 d
[4] = tested on: Kochia (Kochia scoparia); test: Test A preemergence; conditions: Preemergence; for Plant response rating, Kochia: 125 g ai/ha, visual injury after approximately 10 d, 0 to 100 scale where 0 is no effect and 100 is complete control; for Kochia plant response rating (0 to 100 scale, 0 is no effect, 100 is complete control): 500 g ai/ha, visual injury approx. 10 d
Outline: as §1

[5] = tested on: ryegrass, Italian (Italian ryegrass, Lolium multiflorum); test: Test A preemergence; conditions: Preemergence; for Plant response rating, Ryegrass, Italian: 125 g ai/ha, visual injury after approximately 10 d, 0 to 100 scale where 0 is no effect and 100 is complete control; for Ryegrass, Italian plant response rating (0 to 100 scale, 0 is no effect, 100 is complete control): 500 g ai/ha, visual injury approx. 10 d
Outline: as §1

[6] = tested on: ragweed (common ragweed, Ambrosia elatior); test: Test A preemergence; conditions: Preemergence; for Plant response rating, Ragweed: 125 g ai/ha, visual injury after approximately 10 d, 0 to 100 scale where 0 is no effect and 100 is complete control; for Ragweed plant response rating (0 to 100 scale, 0 is no effect, 100 is complete control): 500 g ai/ha, visual injury approx. 10 d
Outline: as §1

[7] = tested on: barnyardgrass (Echinochloa crus-galli); test: Test B flooded paddy test; conditions: Flood, 500 g ai/ha; 0 to 100 scale where 0 is no effect and 100 is complete control; 13 to 15 d
Outline: (§2)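 Rating scale 0–100 (visual, vs untreated controls) after a 13–15 d greenhouse period; application to the flood layer, 3 cm above soil and maintained; plants at 2-leaf stage when treated.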

[8] = tested on: rice (Oryra sativa); test: Test B flooded paddy test; conditions: Flood, 500 g ai/ha; 0 to 100 scale where 0 is no effect and 100 is complete control; 13 to 15 d
Outline: as §2

[9] = tested on: ducksalad (Heteranthera limosa); test: Test B flooded paddy test; conditions: Flood, 500 g ai/ha; 0 to 100 scale where 0 is no effect and 100 is complete control; 13 to 15 d
Outline: as §2

[10] = tested on: sedge, umbrella (small-flower umbrella sedge, Cyperus difformis); test: Test B flooded paddy test; conditions: Flood, 500 g ai/ha; 0 to 100 scale where 0 is no effect and 100 is complete control; 13 to 15 d
Outline: as §2

[11] = tested on: barnyardgrass (Echinochloa crus-galli); test: Test A postemergence; conditions: for Barnyardgrass plant response rating: 125 g ai/ha, postemergence, visual injury rating on 0 to 100 scale (0 no effect, 100 complete control), approx. 10 d; for Plant response rating, Barnyardgrass: Postemergence, 500 g ai/ha, 0 to 100 scale where 0 is no effect and 100 is complete control
Outline: as §1

[12] = tested on: blackgrass (Alopecurus myosuroides); test: Test A postemergence; conditions: for Blackgrass plant response rating: 125 g ai/ha, postemergence, visual injury rating on 0 to 100 scale (0 no effect, 100 complete control), approx. 10 d; for Plant response rating, Blackgrass: Postemergence, 500 g ai/ha, 0 to 100 scale where 0 is no effect and 100 is complete control
Outline: as §1

[13] = tested on: giant foxtail (Setaria faberii); test: Test A postemergence
Outline: as §1

[14] = tested on: pigweed (Amaranthus retroflexus); test: Test A postemergence
Outline: as §1

[15] = tested on: corn (Zea mays); test: Test A postemergence
Outline: as §1

[16] = tested on: Kochia (Kochia scoparia); test: Test A postemergence
Outline: as §1

[17] = tested on: wheat (Triticum aestivum); test: Test A postemergence
Outline: as §1

[18] = tested on: ryegrass, Italian (Italian ryegrass, Lolium multiflorum); test: Test A postemergence
Outline: as §1

[19] = tested on: Galium (catchweed bedstraw, Galium aparine); test: Test A postemergence
Outline: as §1

[20] = tested on: ragweed (common ragweed, Ambrosia elatior); test: Test A postemergence
Outline: as §1

[21] = 125 g ai/ha, postemergence, visual rating after approx. 10 d, 0 to 100 scale (0 no effect, 100 complete control)
[22] = Postemergence, 500 g ai/ha, 0 to 100 scale where 0 is no effect and 100 is complete control

## O=C1NCC(c2ccc(Oc3ccccc3)cc2)C1C(=O)Nc1ccc(F)c(F)c1F (racemic) [Compound 537]
[1]
  Plant response rating, Barnyardgrass: 0
  Barnyardgrass plant response rating (0 to 100 scale, 0 is no effect, 100 is complete control): 0
[2]
  Plant response rating, Foxtail, Giant: 0
  Foxtail, Giant plant response rating (0 to 100 scale, 0 is no effect, 100 is complete control): 0
[3]
  Plant response rating, Pigweed: 0
  Pigweed plant response rating (0 to 100 scale, 0 is no effect, 100 is complete control): 0
[4]
  Plant response rating, Kochia: 0
  Kochia plant response rating (0 to 100 scale, 0 is no effect, 100 is complete control): 0
[5]
  Plant response rating, Ryegrass, Italian: 0
  Ryegrass, Italian plant response rating (0 to 100 scale, 0 is no effect, 100 is complete control): 0
[6]
  Plant response rating, Ragweed: 0
  Ragweed plant response rating (0 to 100 scale, 0 is no effect, 100 is complete control): 0
[7]
  Plant response rating, Barnyardgrass: 30
[8]
  Plant response rating, Rice: 20
[9]
  Plant response rating, Ducksalad: 0
[10]
  Plant response rating, Sedge, Umbrella: 50
[11]
  Barnyardgrass plant response rating: 0
  Plant response rating, Barnyardgrass: 0
[12]
  Blackgrass plant response rating: 0
  Plant response rating, Blackgrass: 0
[13]; [21]
  Plant response rating, Foxtail, Giant: 0
[13]; [22]
  Plant response rating, Foxtail, Giant: 0
[14]; [21]
  Plant response rating, Pigweed: 0
[14]; [22]
  Plant response rating, Pigweed: 0
[15]; [21]
  Plant response rating, Corn: 0
[15]; [22]
  Plant response rating, Corn: 0
[16]; [21]
  Plant response rating, Kochia: 0
[16]; [22]
  Plant response rating, Kochia: 0
[17]; [21]
  Plant response rating, Wheat: 0
[17]; [22]
  Plant response rating, Wheat: 0
[18]; [21]
  Plant response rating, Ryegrass, Italian: 0
[18]; [22]
  Plant response rating, Ryegrass, Italian: 0
[19]; [21]
  Plant response rating, Galium: 0
[19]; [22]
  Plant response rating, Galium: 0
[20]; [21]
  Plant response rating, Ragweed: 0
[20]; [22]
  Plant response rating, Ragweed: 0

## O=C1NCC(c2ccc(Oc3ccccc3)cc2)C1C(=O)Nc1ccccc1Cl (racemic) [Compound 538]
[1]
  Plant response rating, Barnyardgrass: 0
  Barnyardgrass plant response rating (0 to 100 scale, 0 is no effect, 100 is complete control): 0
[2]
  Plant response rating, Foxtail, Giant: 0
  Foxtail, Giant plant response rating (0 to 100 scale, 0 is no effect, 100 is complete control): 0
[3]
  Plant response rating, Pigweed: 0
  Pigweed plant response rating (0 to 100 scale, 0 is no effect, 100 is complete control): 0
[4]
  Plant response rating, Kochia: 0
  Kochia plant response rating (0 to 100 scale, 0 is no effect, 100 is complete control): 0
[5]
  Plant response rating, Ryegrass, Italian: 0
  Ryegrass, Italian plant response rating (0 to 100 scale, 0 is no effect, 100 is complete control): 0
[6]
  Plant response rating, Ragweed: 0
  Ragweed plant response rating (0 to 100 scale, 0 is no effect, 100 is complete control): 0
[7]
  Plant response rating, Barnyardgrass: 0
[8]
  Plant response rating, Rice: 0
[9]
  Plant response rating, Ducksalad: 0
[10]
  Plant response rating, Sedge, Umbrella: 0
[11]
  Barnyardgrass plant response rating: 0
  Plant response rating, Barnyardgrass: 0
[12]
  Blackgrass plant response rating: 0
  Plant response rating, Blackgrass: 0
[13]; [21]
  Plant response rating, Foxtail, Giant: 0
[13]; [22]
  Plant response rating, Foxtail, Giant: 0
[14]; [21]
  Plant response rating, Pigweed: 0
[14]; [22]
  Plant response rating, Pigweed: 0
[15]; [21]
  Plant response rating, Corn: 0
[15]; [22]
  Plant response rating, Corn: 0
[16]; [21]
  Plant response rating, Kochia: 0
[16]; [22]
  Plant response rating, Kochia: 0
[17]; [21]
  Plant response rating, Wheat: 0
[17]; [22]
  Plant response rating, Wheat: 0
[18]; [21]
  Plant response rating, Ryegrass, Italian: 0
[18]; [22]
  Plant response rating, Ryegrass, Italian: 0
[19]; [21]
  Plant response rating, Galium: 0
[19]; [22]
  Plant response rating, Galium: 0
[20]; [21]
  Plant response rating, Ragweed: 0
[20]; [22]
  Plant response rating, Ragweed: 0

From US12077503B2, “Substituted cyclic amides and their use as herbicides” (FMC CORPORATION, priority 2015, dated 2024)
